Data as given in patent US7427391B2, “Formulations for use in medical and diagnostic procedures” (priority 2001, dated 2008).

Assays:
Format in all cases: in vivo, human
[1] = Side-effect questionnaire (diarrhea, nausea) 24 hours after MR examination (Example 4)
Text: Twenty-four hours after each MR examination, volunteers were asked by a standardized questionnaire based on a three-point scale (0=no side-effects, 1=mild side-effects, 2=severe side-effects) if either diarrhea or nausea have occurred in association with the contrast ingestion.

[2] = Incidence of diarrhea in patients given contrast agent; conditions: administered alone as a contrast agent
Procedure: Further, it has been discovered that the formulations disclosed herein have the unexpected benefit of reducing incidents of diarrhea among patients. For example, when mannitol alone is administered as a contrast agent, approximately 99% of patients experience diarrhea, sometimes in severe form. As a result, the patient's health and/or hydration may be affected, and the exam may be compromised. […] It is believed that this is due to the thickening properties of the stabilizing agent. Accordingly, due to the patient not having to use the bathroom during the procedure, for example, the medical or diagnostic procedure can be performed with less patient discomfort and with less interference. Additionally, patient compliance with the medical or diagnostic procedure is increased due to decreased complications with the procedure.

small bowel [3] = test: Blinded qualitative rating of bowel distension on MR images by five radiologists (Example 4); conditions: six volunteers; consensus of five blinded radiologists
Text: For a qualitative assessment, MR images of all 5 examinations for each volunteer were presented as hardcopies in a randomized and blinded fashion to five radiologists. They were asked to rate the images regarding bowel distention in an ascending order for each volunteer. The qualitative assessment was done by consensus.

small bowel [4] = test: MR (TrueFISP) measurement of small bowel loop diameters after 1500 ml oral contrast solution (Example 4); conditions: for Mean small bowel diameter / Mean small bowel diameter, AV (average of all six volunteer examinations): 1500 ml orally over 45 minutes; for Mean small bowel diameter: MR TrueFISP; for Mean small bowel diameter, AV (average of all six volunteer examinations): average of six volunteers; for Small bowel distension, comparison in words: six volunteers, paired t-test, p<0.01
Procedure: Six healthy volunteers (three female and three male; age range 21-28 years) without known contraindications to MR imaging were included in this study, which was conducted in accordance with all guidelines set forth by the approving institutional review board. Presence of gastrointestinal disease, previous abdominal surgery and symptoms of gastrointestinal disorders such as post-prandiol belching, nausea or early satiety were excluded. Each volunteer was examined on five different occasions. […] The LBG and Metamucil concentrations were chosen as high as possible within the confines of an unproblematic ingestion regarding viscosity and flavor, while choice of the mannitol concentration was based on previous studies. To assure homogenization of bowel activity, all exams were performed following 8 hour fasts. Prior to each exam, 1500 ml of the respective contrast solution were orally ingested over 45 minutes at a steady, evenly distributed rate. To ensure a consistent ingestion, volunteers were asked to drink 150 ml every four to five minutes. To enhance gastric emptying, 100 mg erythromycin (Abbott Pharmaceutics, Wiesbaden, Germany) were administered intravenously directly after the ingestion of the first 150 ml of the contrast solution. […] For signal reception a large ‘flex surface coils’ was used. Prior to the data acquisition neither spasmolytic agents nor paramagnetic contrast compounds were intravenously applied. […] Other sequence parameters included a field of view 35 cm, a slice thickness of 7 mm (25 slices) and an acquisition time of 24 seconds. Matrix size was 144×256, inter section gap amounted to 1 mm and the number of excitation was one. All 30 MR examinations were of diagnostic image quality. 1500 ml of each solution was ingested within the target time of 45 minutes. Images were quantitatively analyzed independently by two radiologists, who were blinded to the type of oral contrast employed. […] For the measurements bowel loops with maximal diameter were chosen. […] Subsequent analysis was based on mean small bowel diameters and their standard deviations. The effects of the analyzed oral contrast agents concerning small bowel distension were compared by a paired t-test. For the adaptation to multiple samples, a Bonferoni-correction was used.

stomach and small bowel = test: CT-PET measurement of stomach, jejunum and ileum diameters in oncologic patients (Example 5); conditions: 20 oncologic patients per agent
Procedure: CT-PET examinations of 60 oncologic patients were performed on a combined CT-PET tomograph. Three different oral contrast agents were randomly assigned to 20 patients each: barium, water, and a solution of 2.5% mannitol and 0.2% locust bean gum (LBG). To compare the bowel distension abilities of the three agents, representative diameters each of the stomach, the jejunum and the ileum were measured by two radiologists. PET images were evaluated qualitatively for areas of increased bowel FDG uptake based on a four-point scale as well as quantitatively by determination of standard uptake values (SUV). To assess the effect of the different contrast agents onto the tracer activity concentration phantom measurements were performed.
Table 3 Intestinal distension of the stomach, the jejunum, and the ileum induced by the contrast agents under investigation as well as SUV of the small intestine in the presence of the different contrast materials. Statistical significance was determined by unpaired Student's test based on 200 measurements each for the stomach, the jejunum, the ileum, and the SUV. Thus, a total of 800 measurements were performed for every contrast agent under investigation.

small bowel [5] = test: MR imaging of small bowel after oral contrast solutions (Examples 1-3); conditions: oral application, FIGS. 1-9
Procedure: Ten healthy volunteers with no history of gastrointestinal disorder underwent MR imaging following an eight hour fast. The examination was repeated on four different days using different osmotic substances in a randomized order: water, water spiked with mannitol (2.5%), Metamucil (0.7%) or locust bean gum (0.2%). Concentrations of the additives were chosen to avoid side-effects such as diarrhea.
Forty-five minutes prior to the examination, 50 mg of Erythromycin was applied intravenously to increase gastric emptying and the volunteers started ingesting the respective contrast substance. Coronal 2D measurements were performed in the prone patient position with a TRUFISP sequence (TR/TE/flip 3.2/1.6/70°) using 1.5 T scanner (Sonata, Siemens). The acquisition time amounted to 16 sec. Small bowel filling was quantified in two different ways: (1) determination of small bowel fluid by automatically measuring all pixels meeting the signal intensity of water, and (2) assessment of small bowel distension by manual measurement of 15 small bowel diameters and calculating an average value.

Row | Structure (SMILES) | Diarrhea, in words ([1]; of the three evaluated substances) | Diarrhea as side effect, volunteers reporting ([1]; six volunteers, questionnaire 24 hours after MR examination) | Patients experiencing diarrhea [2] | Qualitative assessment of small bowel distension (rating) (small bowel [3]) | Mean small bowel diameter (small bowel [4]; Volunteer #1) [mm] | Mean small bowel diameter (small bowel [4]; Volunteer #2) [mm] | Mean small bowel diameter (small bowel [4]; Volunteer #3) [mm] | Mean small bowel diameter (small bowel [4]; Volunteer #4) [mm] | Mean small bowel diameter (small bowel [4]; Volunteer #5) [mm] | Mean small bowel diameter (small bowel [4]; Volunteer #6) [mm] | Mean small bowel diameter, AV (average of all six volunteer examinations) (small bowel [4]) [mm] | Small bowel distension, comparison in words (small bowel [4]) | Intestinal distension of the ileum, Mean (stomach and small bowel) | Intestinal distension of the jejunum, Mean (stomach and small bowel) | Intestinal distension of the stomach, Mean (stomach and small bowel) | Diagnostic performance / lumen distention, in words (small bowel [5])
1 | OC[C@@H](O)[C@@H](O)[C@H](O)[C@H](O)CO [Mannitol, mannitol] | consistently resulted in diarrhea | 2 of 6 | approximately 99% | in four volunteers mannitol was rated better | 23.7 | 22.9 | 19.2 | 19.3 | 22.9 | 19.6 | 21.3 | superior to Metamucil | – | – | – | –
2 | O [Water, water] | – | – | – | rated poorest | 13.6 | 15.0 | 12.4 | 14.6 | 12.6 | 11.8 | 13.3 | significantly less small bowel distension | 1.4 | 1.6 | 6.1 | does not achieve acceptable or diagnostic results
